Some results are limits rather than exact numbers.

Data on 44 molecules can be found in patent US9193722B2, “Tri-cyclic pyrazolopyridine kinase inhibitors” (Vertex Pharmaceuticals Incorporated, priority 2008, dated 2015).

What all share (type): biochemical
One experiment concerns the target PKC theta kinase (Homo sapiens, UniProt Q04759). Briefly: PKC theta kinase inhibition, coupled-enzyme (NADH absorbance) assay, Ki. Conditions: 240 μM ATP, 18 nM PKC theta kinase, 30° C. The gist of the method:
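Enzyme and compound equilibrated 10 min at 30 °C before reaction in HEPES pH 7.5 buffer with MgCl2, NaCl, EDTA and Brij. Activity tracked as NADH loss at 340 nm through a coupled system. Initial-rate data fitted by non-linear regression to give Ki.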

For a further experiment, the target named is PKC delta kinase (Homo sapiens, UniProt Q05655). Nature of the experiment: PKC delta kinase inhibition, coupled-enzyme (NADH absorbance) assay, Ki. Conditions: 150 μM ATP, 46 nM PKC delta kinase, 30° C.; read-out: Ki PKC delta. The gist of the method: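 Enzyme and compound pre-equilibrated 10 min at 30° C before adding ATP to 150 μM final. Buffer: HEPES pH 7.5 (100 mM), 10 mM MgCl2, 25 mM NaCl, 0.1 mM EDTA, 0.01% Brij.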

The target in a further experiment is PKC alpha kinase (Homo sapiens, UniProt P17252). Nature of the experiment: PKC alpha kinase inhibition, coupled-enzyme (NADH absorbance) assay, Ki. Conditions: 130 μM ATP, 4.5 nM PKC alpha kinase, 30° C. The gist of the method:
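Ki derived by non-linear regression of initial rates from a coupled assay tracking NADH absorbance at 340 nm over 15 min at 30 °C. ATP was 130 μM final after a 10 min compound–enzyme preincubation in HEPES pH 7.5 buffer with MgCl2, CaCl2, NaCl, EDTA and Brij.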

Chain of PKC delta kinase (Q05655 whole entry): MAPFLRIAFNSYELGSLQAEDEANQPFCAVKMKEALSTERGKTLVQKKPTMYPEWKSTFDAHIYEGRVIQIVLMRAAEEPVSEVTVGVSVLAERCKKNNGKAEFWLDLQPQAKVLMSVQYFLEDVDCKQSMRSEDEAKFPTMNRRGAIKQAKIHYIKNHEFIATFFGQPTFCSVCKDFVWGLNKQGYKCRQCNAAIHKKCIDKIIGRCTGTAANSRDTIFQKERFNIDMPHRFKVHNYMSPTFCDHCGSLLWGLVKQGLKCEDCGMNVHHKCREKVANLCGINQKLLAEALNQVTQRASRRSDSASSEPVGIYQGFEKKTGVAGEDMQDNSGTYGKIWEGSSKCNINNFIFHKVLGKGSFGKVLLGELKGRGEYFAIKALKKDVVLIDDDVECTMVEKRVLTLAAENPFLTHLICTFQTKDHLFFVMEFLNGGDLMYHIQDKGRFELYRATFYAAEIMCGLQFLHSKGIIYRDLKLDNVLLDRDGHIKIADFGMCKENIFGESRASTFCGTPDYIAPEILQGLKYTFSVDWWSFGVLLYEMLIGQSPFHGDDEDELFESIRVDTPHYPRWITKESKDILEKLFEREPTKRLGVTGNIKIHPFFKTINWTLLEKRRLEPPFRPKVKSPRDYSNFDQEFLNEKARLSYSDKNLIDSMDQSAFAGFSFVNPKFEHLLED
Chain of PKC theta kinase (Q04759 whole entry): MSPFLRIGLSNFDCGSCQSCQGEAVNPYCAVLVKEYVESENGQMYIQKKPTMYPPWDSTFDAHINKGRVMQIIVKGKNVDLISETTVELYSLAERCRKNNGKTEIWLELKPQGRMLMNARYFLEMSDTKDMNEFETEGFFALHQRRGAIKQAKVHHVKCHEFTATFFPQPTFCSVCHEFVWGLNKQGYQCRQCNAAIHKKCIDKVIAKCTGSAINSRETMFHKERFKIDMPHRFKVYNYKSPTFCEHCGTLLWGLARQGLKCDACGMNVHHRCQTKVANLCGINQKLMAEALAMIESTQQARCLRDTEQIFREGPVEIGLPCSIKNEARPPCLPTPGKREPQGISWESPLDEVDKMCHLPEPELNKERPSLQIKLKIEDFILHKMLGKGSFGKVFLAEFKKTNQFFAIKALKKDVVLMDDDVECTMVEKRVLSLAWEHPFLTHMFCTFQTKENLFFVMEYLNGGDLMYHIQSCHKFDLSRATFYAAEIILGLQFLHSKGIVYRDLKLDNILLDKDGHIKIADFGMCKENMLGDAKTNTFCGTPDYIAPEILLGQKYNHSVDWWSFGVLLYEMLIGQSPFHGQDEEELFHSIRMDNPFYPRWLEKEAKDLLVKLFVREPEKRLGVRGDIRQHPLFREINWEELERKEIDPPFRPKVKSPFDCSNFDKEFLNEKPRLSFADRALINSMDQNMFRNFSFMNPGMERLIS

Take `CC(F)(F)C(C)(O)C1CN(c2ccc(F)c(-c3n[nH]c4ncccc34)n2)CCN1` (stereo not drawn) [Compound 286]: the Ki at PKC theta kinase was less than 50 nM; at PKC delta kinase, less than 500 nM; on PKC alpha kinase, greater than 1250 nM.
Taken in the same sequence, the figures for `CC(F)(F)C(C)(O)C1CN(c2ccc(F)c(-c3n[nH]c4ncccc34)n2)CCN1` (stereo not drawn) [Compound 287] were less than 1 nM, less than 10 nM and less than 2800 nM.
Taken in the same sequence, the figures for `CC1(C)CC1(O)C1CN(c2ccc(F)c(-c3n[nH]c4ncccc34)n2)CCN1` (stereo not drawn) [Compound 288] were less than 1 nM, less than 500 nM and greater than 1250 nM.
Taken in the same sequence, the figures for `NCC1CCN(c2ccc(F)c(-c3n[nH]c4ncccc34)n2)C1` (stereo not drawn) [Compound 289] were less than 500 nM, greater than 1250 nM and greater than 1250 nM.
`Fc1ccc(N2CCN3CCCC3C2)nc1-c1n[nH]c2ncccc12` (stereo not drawn) [Compound 290]: the Ki on PKC theta kinase was less than 500 nM; at PKC delta kinase it was greater than 1250 nM; on PKC alpha kinase, greater than 1250 nM.
`CCC(N)C1CCCN(c2ccc(F)c(-c3n[nH]c4ncccc34)n2)C1` (stereo not drawn) [Compound 291]: the Ki is less than 50 nM at PKC theta kinase, less than 500 nM at PKC delta kinase and less than 2800 nM at PKC alpha kinase.
`CC(C)C(C)(N)C1CCCN(c2ccc(F)c(-c3n[nH]c4ncccc34)n2)C1` (stereo not drawn) [Compound 292]: the Ki is less than 500 nM on PKC theta kinase, less than 2800 nM at PKC delta kinase and greater than 1250 nM on PKC alpha kinase.
Consider `CC(C)CC1(CO)CN(c2ccc(F)c(-c3n[nH]c4ncccc34)n2)CCC1N` (stereo not drawn) [Compound 293], for which the values for the Ki at PKC theta kinase, at PKC delta kinase and on PKC alpha kinase were less than 50 nM, less than 50 nM and less than 500 nM, respectively.
`NC1CCCN(c2ccc(F)c(-c3n[nH]c4ncccc34)n2)C1` (stereo not drawn) [Compound 294]: the Ki on PKC theta kinase was less than 500 nM; at PKC delta kinase it was greater than 1250 nM; on PKC alpha kinase, greater than 1250 nM.
In the case of `CC(C)CC1(O)CCCN(c2ccc(F)c(-c3n[nH]c4ncccc34)n2)C1` (stereo not drawn) [Compound 295], the Ki was less than 2800 nM on PKC theta kinase, greater than 1250 nM on PKC delta kinase and greater than 1250 nM at PKC alpha kinase.
Regarding `NCC1CN(c2ccc(F)c(-c3n[nH]c4ncccc34)n2)CCC1O` (stereo not drawn) [Compound 296], the Ki at PKC theta kinase is less than 500 nM; at PKC delta kinase, less than 2800 nM; on PKC alpha kinase, greater than 1250 nM.
The like results for `Fc1ccc(N2CCc3[nH]ncc3C2)nc1-c1n[nH]c2ncccc12` [Compound 298] were, in that order, greater than 700 nM, greater than 1250 nM and greater than 1250 nM.
The like results for `CC(C)CC(N)C1CCCN(c2ccc(F)c(-c3n[nH]c4ncccc34)n2)C1` (stereo not drawn) [Compound 299] were, in that order, less than 50 nM, less than 2800 nM and greater than 1250 nM.
Turning to `NC(c1ccccc1)C1CCCN(c2ccc(F)c(-c3n[nH]c4ncccc34)n2)C1` (stereo not drawn) [Compound 301], the Ki at PKC theta kinase is less than 500 nM; on PKC delta kinase, greater than 1250 nM; on PKC alpha kinase, greater than 1250 nM.
Turning to `NC(=O)C1CCCN(c2ccc(F)c(-c3n[nH]c4ncccc34)n2)C1` (stereo not drawn) [Compound 302], the Ki on PKC theta kinase is greater than 700 nM; at PKC delta kinase it was greater than 1250 nM; on PKC alpha kinase it was greater than 1250 nM.
As for `CC(=O)NCC1CCCN(c2ccc(F)c(-c3n[nH]c4ncccc34)n2)C1` (stereo not drawn) [Compound 303], the figures for the Ki on PKC theta kinase, on PKC delta kinase and at PKC alpha kinase were greater than 700 nM, greater than 1250 nM and greater than 1250 nM, respectively.
For `NCCC1CCCN(c2ccc(F)c(-c3n[nH]c4ncccc34)n2)C1` (stereo not drawn) [Compound 304], the Ki at PKC theta kinase was greater than 700 nM; at PKC delta kinase, greater than 1250 nM; at PKC alpha kinase, greater than 1250 nM.
`CN(C)CC1CCCN(c2ccc(F)c(-c3n[nH]c4ncccc34)n2)C1` (stereo not drawn) [Compound 305]: the Ki is greater than 700 nM on PKC theta kinase, greater than 1250 nM on PKC delta kinase and greater than 1250 nM on PKC alpha kinase.
In the case of `NCc1cccc(-c2ccc(C(F)(F)F)c(-c3n[nH]c4ncccc34)n2)c1` [Compound 306], the figures for the Ki at PKC theta kinase, at PKC delta kinase and on PKC alpha kinase were greater than 700 nM, greater than 1250 nM and greater than 1250 nM, respectively.
With `CC(C)(C)C(N)C1CCCN(c2ccc(F)c(-c3n[nH]c4ncccc34)n2)C1` (stereo not drawn) [Compound 307], the Ki on PKC theta kinase is less than 1 nM; at PKC delta kinase it was less than 50 nM; at PKC alpha kinase, less than 500 nM.
Regarding `CC(C)(C)C(N)C1CCCN(c2ccc(F)c(-c3n[nH]c4ncccc34)n2)C1` (stereo not drawn) [Compound 308], the values for the Ki on PKC theta kinase, at PKC delta kinase and on PKC alpha kinase were less than 50 nM, less than 2800 nM and greater than 1250 nM, respectively.
Taken in the same sequence, the figures for `Fc1ccc(N2CC3CCNCC3C2)nc1-c1n[nH]c2ncccc12` (stereo not drawn) [Compound 309] were less than 2800 nM, greater than 1250 nM and greater than 1250 nM.
The like results for `CC(C)(N)C1CCCN(c2ccc(F)c(-c3n[nH]c4ncccc34)n2)C1` (stereo not drawn) [Compound 310] were, in that order, less than 500 nM, less than 500 nM and less than 2800 nM.
Taken in the same sequence, the figures for `Fc1ccc(N2CCC3(CCNC3)C2)nc1-c1n[nH]c2ncccc12` (stereo not drawn) [Compound 312] were greater than 700 nM, greater than 1250 nM and greater than 1250 nM.
As for `CC1CN(c2ccc(F)c(-c3n[nH]c4ncccc34)n2)CC1CN` (stereo not drawn) [Compound 313], the Ki was less than 500 nM at PKC theta kinase, greater than 1250 nM at PKC delta kinase and greater than 1250 nM on PKC alpha kinase.
On to `Fc1ccc(N2CCCC(C3CCCN3)C2)nc1-c1n[nH]c2ncccc12` (stereo not drawn) [Compound 314], for which the Ki at PKC theta kinase is less than 500 nM; on PKC delta kinase, greater than 1250 nM; on PKC alpha kinase, greater than 1250 nM.
As for `CC1(N)CCCN(c2ccc(F)c(-c3n[nH]c4ncccc34)n2)C1` (stereo not drawn) [Compound 316], the Ki at PKC theta kinase is less than 500 nM; on PKC delta kinase, greater than 1250 nM; on PKC alpha kinase, greater than 1250 nM.
For `CC(C)(C)CC(N)C1CCCN(c2ccc(F)c(-c3n[nH]c4ncccc34)n2)C1` (stereo not drawn) [Compound 317], the Ki is less than 50 nM at PKC theta kinase, greater than 1250 nM on PKC delta kinase and greater than 1250 nM at PKC alpha kinase.
For `CC1(N)CCCN(c2ccc(C(F)(F)F)c(-c3n[nH]c4ncccc34)n2)C1` (stereo not drawn) [Compound 319], the Ki at PKC theta kinase is greater than 700 nM; at PKC delta kinase, greater than 1250 nM; at PKC alpha kinase, greater than 1250 nM.
With `FC(F)(F)c1ccc(N2CCC(N3CCCCC3)CC2)nc1-c1n[nH]c2ncccc12` [Compound 320], the Ki at PKC theta kinase was greater than 700 nM; on PKC delta kinase, greater than 1250 nM; at PKC alpha kinase, greater than 1250 nM.
In the case of `OCC1CCN(c2ccc(C(F)(F)F)c(-c3n[nH]c4ncccc34)n2)CC1` [Compound 321], the results for the Ki at PKC theta kinase, on PKC delta kinase and on PKC alpha kinase were greater than 700 nM, greater than 1250 nM and greater than 1250 nM, respectively.
Regarding `CC(O)(c1ccccc1)C1CN(c2ccc(F)c(-c3n[nH]c4ncccc34)n2)CCN1` (stereo not drawn) [Compound 322], the Ki is less than 500 nM on PKC theta kinase, greater than 1250 nM at PKC delta kinase and greater than 1250 nM at PKC alpha kinase.
As to `NC1(C2CCCN(c3ccc(F)c(-c4n[nH]c5ncccc45)n3)C2)CCC1` (stereo not drawn) [Compound 324], the Ki on PKC theta kinase is less than 50 nM; at PKC delta kinase, less than 50 nM; at PKC alpha kinase it was less than 2800 nM.
Consider `CC(C)C[C@H]1CN(c2ccc(F)c(-c3n[nH]c4ncccc34)n2)CC[C@@H]1O` [Compound 325], for which the Ki is less than 500 nM on PKC theta kinase, greater than 1250 nM on PKC delta kinase and greater than 1250 nM at PKC alpha kinase.
`NCC1CCCN(c2ccc(F)c(-c3n[nH]c4ncccc34)n2)C1` (stereo not drawn) [Compound 327]: the Ki at PKC theta kinase is less than 500 nM; on PKC delta kinase it was greater than 1250 nM; on PKC alpha kinase, greater than 1250 nM.
Regarding `CC(C)C(C)(O)C1CN(c2nc(-c3n[nH]c4ncccc34)ccc2F)CCN1` (stereo not drawn) [Compound 328], the Ki at PKC theta kinase is less than 1 nM; on PKC delta kinase it was less than 10 nM; on PKC alpha kinase it was less than 500 nM.
For the molecule `CC(C)C(C)(O)C1CN(c2nc(-c3n[nH]c4ncccc34)ccc2F)CCN1` (stereo not drawn) [Compound 329], the Ki at PKC theta kinase was less than 1 nM; on PKC delta kinase, less than 50 nM; at PKC alpha kinase, less than 2800 nM.
`CC(C)(C)C(N)C1CCCN(c2ccc(F)c(-c3n[nH]c4ncccc34)n2)C1` (stereo not drawn) [Compound 330]: the Ki at PKC theta kinase is less than 1 nM; at PKC delta kinase, less than 10 nM; on PKC alpha kinase it was less than 500 nM.
As to `CC(C)(C)C(N)C1CCCN(c2ccc(F)c(-c3n[nH]c4ncccc34)n2)C1` (stereo not drawn) [Compound 331], the Ki at PKC theta kinase is less than 500 nM; on PKC delta kinase, less than 2800 nM; at PKC alpha kinase it was greater than 1250 nM.
Taken in the same sequence, the figures for `CC1CN(c2ccc(C(F)(F)F)c(-c3n[nH]c4ncccc34)n2)CC1CN` (stereo not drawn) [Compound 332] were greater than 700 nM, greater than 1250 nM and greater than 1250 nM.
Regarding `CC(C)CC1CCCN(c2ccc(C(F)(F)F)c(-c3n[nH]c4ncccc34)n2)C1` (stereo not drawn) [Compound 333], the Ki at PKC theta kinase was greater than 700 nM; at PKC delta kinase, greater than 1250 nM; on PKC alpha kinase, greater than 1250 nM.
Take `CC(C)CC1CCCN(c2ccc(F)c(-c3n[nH]c4ncccc34)n2)C1` (stereo not drawn) [Compound 334]: the Ki was greater than 700 nM at PKC theta kinase, greater than 1250 nM on PKC delta kinase and greater than 1250 nM at PKC alpha kinase.
Consider `NCc1cccc(-c2cccc(-c3n[nH]c4ncccc34)n2)c1` [Compound 335], for which the Ki on PKC theta kinase, at PKC delta kinase and at PKC alpha kinase was less than 2800 nM throughout.
Consider `NCC1CN(c2ccc(C(F)(F)F)c(-c3n[nH]c4ncccc34)n2)CCO1` (stereo not drawn) [Compound 336], for which the Ki is greater than 700 nM at PKC theta kinase, greater than 1250 nM on PKC delta kinase and greater than 1250 nM on PKC alpha kinase.
